The source of these data is patent publication US9115127B2 (AMGEN INC., priority 2010, dated 2015).

The target of this test is T1, wild-type human ALK (cytoplasmic domain, amino acids 1058-1620, N-terminal GST fusion) (Homo sapiens, UniProt Q9UM73).
T1 construct: The cytoplasmic domain (amino acids 1058-1620) of wild-type human ALK; GST (N); made in house; host or cells: SF9 insect cells
T1 sequence (Q9UM73 1058-1620): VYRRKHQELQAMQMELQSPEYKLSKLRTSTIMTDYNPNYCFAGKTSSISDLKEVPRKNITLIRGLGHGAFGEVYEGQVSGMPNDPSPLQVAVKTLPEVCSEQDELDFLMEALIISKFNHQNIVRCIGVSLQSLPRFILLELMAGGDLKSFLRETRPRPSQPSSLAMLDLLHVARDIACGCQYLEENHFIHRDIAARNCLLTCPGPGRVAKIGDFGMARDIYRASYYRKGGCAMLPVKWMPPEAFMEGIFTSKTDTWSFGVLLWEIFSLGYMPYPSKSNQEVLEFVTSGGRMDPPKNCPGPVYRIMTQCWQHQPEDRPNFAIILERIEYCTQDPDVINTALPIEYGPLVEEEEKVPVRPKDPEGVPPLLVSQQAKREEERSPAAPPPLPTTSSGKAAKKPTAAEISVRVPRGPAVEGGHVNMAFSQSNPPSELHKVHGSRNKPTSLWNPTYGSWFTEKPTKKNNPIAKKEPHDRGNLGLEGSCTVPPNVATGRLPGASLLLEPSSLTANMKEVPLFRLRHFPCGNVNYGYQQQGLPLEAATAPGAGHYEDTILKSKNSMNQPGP
Kind of test: ALK Inhibition in Enzyme Assay (Lance TR-FRET kinase assay). The class given is biochemical. Put shortly:
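TR-FRET read-out (Eu-W1024 PT66 anti-phosphotyrosine plus streptavidin-allophycocyanin, 320 nm excitation) quantified biotinylated peptide phosphorylation by the purified kinase. Reaction ran 90 minutes at room temperature before quenching with 20 mM EDTA in Tris pH 7.5 buffer with NaCl, BSA and Tween-20.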
As to `COC(=O)[C@H]1CC[C@@H](n2/c(=N/C(=O)c3ccccc3)[nH]c3cnccc32)CC1` [Example 1, cis-Methyl 4-((E)-2-(benzoylimino)-2,3-dihydro-1H-imidazo[4,5-c]pyridin-1-yl)cyclohexanecarboxylate], the IC50 fell in the range of 100 to 1000 nM. `CONC(=O)[C@H]1CC[C@@H](n2/c(=N/C(=O)c3ccc(F)cc3)[nH]c3ccc(CN4CCOCC4)cc32)CC1` [Example 208, (E)-4-Fluoro-N-(1-(cis-4-(methoxycarbamoyl)cyclohexyl)-6-(morpholinomethyl)-1H-benzo[d]imidazol-2(3H)-ylidene)benzamide]: the IC50 is less than 50 nM. The result for `CC(C)NC(=O)[C@H]1CC[C@@H](n2/c(=N/C(=O)c3cccc(F)c3)[nH]c3cnc(N4CCC(C(C)(C)O)CC4)cc32)CC1` [Example 125, (E)-3-Fluoro-N-(6-(4-(2-hydroxypropan-2-yl)piperidin-1-yl)-1-(cis-4-(isopropylcarbamoyl)cyclohexyl)-1H-imidazo[4,5-c]pyridin-2(3H)-ylidene)benzamide] reads less than 50 nM; that for `O=C(/N=c1\[nH]c2ccc(CN3CCOCC3)cc2n1[C@H]1CC[C@@H](C(=O)N2CCOCC2)CC1)c1ccc(F)cc1` [Example 202, (E)-4-Fluoro-N-(1-(cis-4-(morpholine-4-carbonyl)cyclohexyl)-6-(morpholinomethyl)-1H-benzo[d]imidazol-2(3H)-ylidene)benzamide], 100 to 1000 nM; that for `CC(C)NC(=O)[C@H]1CC[C@@H](n2/c(=N/C(=O)c3ccc(F)cc3)[nH]c3ccc(CN4CCCC(C(N)=O)C4)cc32)CC1` (stereo partly drawn) [Example 180, 1-(((E)-2-(4-Fluorobenzoylimino)-3-(cis-4-(isopropylcarbamoyl)-cyclohexyl)-2,3-dihydro-1H-benzo[d]imidazol-5-yl)methyl)piperidine-3-carboxamide], less than 50 nM. The result for `CNC(=O)[C@H]1CC[C@H](n2/c(=N/C(=O)c3cc(F)cc(F)c3)[nH]c3cnc(OCCN4CCCCC4)cc32)CC1` [Example 249, (E)-3,5-Difluoro-N-(1-(trans-4-(methylcarbamoyl)cyclohexyl)-6-(2-(piperidin-1-yl)ethoxy)-1H-imidazo[4,5-c]pyridin-2(3H)-ylidene)benzamide] reads 1000 to 5000 nM. The result for `O=C(/N=c1\[nH]c2ccc(CN3CCCCC3)cc2n1C12CC3CC(CC(C3)C1)C2)c1ccccc1` [Example 16] reads 50 to 100 nM; that for `CC(C)(O)C1CCN(Cc2ccc3[nH]/c(=N\C(=O)c4cccc(F)c4)n([C@H]4CC[C@H](C(N)=O)CC4)c3c2)CC1` [Example 234, (E)-N-(1-(trans-4-Carbamoylcyclohexyl)-6-((4-(2-hydroxypropan-2-yl)piperidin-1-yl)methyl)-1H-benzo[d]imidazol-2(3H)-ylidene)-3-fluorobenzamide], 100 to 1000 nM. On to `O=C(/N=c1\[nH]c2ccc(CN3CCCCC3)cc2n1[C@H]1CC[C@@H](C(=O)Nc2nccs2)CC1)c1ccc(F)cc1` [Example 49, (E)-4-Fluoro-N-(6-(piperidin-1-ylmethyl)-1-(cis-4-(thiazol-2-ylcarbamoyl)cyclohexyl)-1H-benzo[d]imidazol-2(3H)-ylidene)benzamide], for which the concentration for half-maximal inhibition (IC50) was in the range of 50 to 100 nM. The result for `CC(C)NC(=O)[C@H]1CC[C@@H](n2/c(=N/C(=O)c3ccc(C#N)cc3)[nH]c3cnc(OCCN4CCCCC4)cc32)CC1` [Example 89, (E)-4-Cyano-N-(1-(cis-4-(isopropylcarbamoyl)cyclohexyl)-6-(2-(piperidin-1-yl)ethoxy)-1H-imidazo[4,5-c]pyridin-2(3H)-ylidene)benzamide] reads less than 50 nM; that for `N#C[C@]1(c2ccccn2)C[C@H](n2/c(=N/C(=O)c3ccc(F)cc3)[nH]c3cnc(OCCN4CCCCC4)cc32)C1` [Example 241, (E)-N-(1-(cis-3-Cyano-3-(pyridin-2-yl)cyclobutyl)-6-(2-(piperidin-1-yl)ethoxy)-1H-imidazo[4,5-c]pyridin-2(3H)-ylidene)-4-fluorobenzamide], 100 to 1000 nM.
